Measurements: ChEMBL document CHEMBL1201862, “PubChem BioAssay data set” (2004)
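Protocol summary: plate cells (96-well), add compound at 5 concentrations, incubate 48 h, interpolate endpoints linearly. Abbreviation: GI50, concentration required for 50% inhibition of growth.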 Calls of active or inactive are those of the source. Cut-off read from the data, not from the text of the source: active = GI50 up to about 1.1 µM and inactive = higher.

How the values were obtained:
Test in all cases: NCI tumour cell line growth inhibition, 48 h
SNB-78 = system: SNB-78
DLD-1 = system: DLD-1
LXFL 529 = system: LXFL 529
DMS-273 = system: DMS-273
HOP-18 = system: HOP-18
RXF 631 = system: RXF 631
MDA-N = system: MDA-N
MCF7 = system: MCF7
T47D = system: T47D

SMILES | GI50 (SNB-78) | GI50 (DLD-1) | GI50 (LXFL 529) | GI50 (DMS-273) | GI50 (HOP-18) | GI50 (RXF 631) | GI50 (MDA-N) | GI50 (MCF7) | GI50 (T47D)
Cn1cc2ccccc2c1-c1nc(F)nc(F)n1 | > 100 µM (inactive) | > 100 µM (inactive) | > 100 µM (inactive) | > 100 µM (inactive) | – | – | – | – | –
OCC1CC2CC1C1(C2)OCCO1 (stereo unspecified) | > 100 µM (inactive) | > 100 µM (inactive) | > 100 µM (inactive) | > 100 µM (inactive) | > 100 µM (inactive) | > 100 µM (inactive) | – | – | –
O=C(O)Cc1ccc2c(c1O)C(=O)c1c(ccc(CC(=O)O)c1O)C2=O | > 100 µM (inactive) | > 100 µM (inactive) | > 100 µM (inactive) | > 100 µM (inactive) | > 100 µM (inactive) | – | – | – | –
O=Cc1[nH]c2ccccc2c1Br | 15.8 µM (inactive) | 22.6 µM (inactive) | 25.5 µM (inactive) | 17.8 µM (inactive) | 27.7 µM (inactive) | 20 µM (inactive) | – | – | –
Cc1c(OCCCOc2ccc3c(=O)cc(-c4ccccc4)oc3c2C)ccc2c(=O)cc(-c3ccccc3)oc12 | 51.2 µM (inactive) | > 100 µM (inactive) | > 100 µM (inactive) | > 100 µM (inactive) | > 100 µM (inactive) | – | – | – | –
O=C(C#Cc1ccccc1)N1c2ccccc2CC1c1c[nH]c2ccccc12 (stereo unspecified) | 13 µM (inactive) | 2.07 µM (inactive) | 12.3 µM (inactive) | 12.7 µM (inactive) | – | 14.3 µM (inactive) | – | – | –
COc1ccc(CCc2cc(OC)c(OC)c(OC)c2)cc1 | 0.0169 µM (active) | < 0.01 µM (active) | 0.0552 µM (active) | < 0.01 µM (active) | > 100 µM (inactive) | < 0.0166 µM (active) | < 0.01 µM (active) | 0.0283 µM (active) | –
COc1nc2c(OC)cccc2c(OC)c1C=O | – | – | – | > 100 µM (inactive) | > 100 µM (inactive) | – | – | – | –
C1CSC(=[N+]2CC[N+](=C3SCCS3)CC2)S1 | > 100 µM (inactive) | > 100 µM (inactive) | > 100 µM (inactive) | > 100 µM (inactive) | > 100 µM (inactive) | > 100 µM (inactive) | – | – | –
CC(C)(C)CC(C)(C)c1cc2c(O)c(c1)Cc1cc(C(C)(C)CC(C)(C)C)cc(c1O)Cc1cc(C(C)(C)CC(C)(C)C)cc(c1O)Cc1cc(C(C)(C)CC(C)(C)C)cc(c1O)Cc1cc(C(C)(C)CC(C)(C)C)cc(c1O)C2 | > 100 µM (inactive) | > 100 µM (inactive) | > 100 µM (inactive) | > 100 µM (inactive) | – | – | – | – | –
COc1cc(C(=O)c2cocc2C(=O)c2ccc3c(c2)OCO3)cc(OC)c1OC | – | 0.867 µM (active) | 0.871 µM (active) | 0.729 µM (active) | > 51.1 µM (inactive) | – | 0.0468 µM (active) | 0.217 µM (active) | –
Cc1ccc(S(=O)(=O)O/N=C2\CCC\C2=C/c2ccccc2)cc1 | 1.31 µM (inactive) | 19.1 µM (inactive) | 16.6 µM (inactive) | 32.8 µM (inactive) | 20.3 µM (inactive) | 16.9 µM (inactive) | – | – | –
CN(C)C(=S)/N=c1\ss/c(=N\C(=S)N(C)C)n1-c1cccc(Cl)c1 | > 100 µM (inactive) | – | – | > 100 µM (inactive) | – | – | – | – | –
CCCCCC/C=C1\CCC(CN(C)C)C1=O (stereo unspecified) | – | 2.23 µM (inactive) | 1.99 µM (inactive) | 4.15 µM (inactive) | 15.4 µM (inactive) | – | 5.47 µM (inactive) | 1.86 µM (inactive) | 2.86 µM (inactive)
NC(=O)C(=Cc1ccc(C(O)P(=O)(O)O)cc1)C(N)=O (stereo unspecified) | > 100 µM (inactive) | > 100 µM (inactive) | > 100 µM (inactive) | > 100 µM (inactive) | > 100 µM (inactive) | > 100 µM (inactive) | – | – | –
COC(=O)C12C3C=CC(O3)C1C1C=CC2O1 (stereo unspecified) | – | > 100 µM (inactive) | > 100 µM (inactive) | > 100 µM (inactive) | > 100 µM (inactive) | – | – | – | –
CCC1(CN(C)C)CC/C(=C\c2ccc(OC)cc2)C1=O (stereo unspecified) | > 100 µM (inactive) | 58.3 µM (inactive) | 94 µM (inactive) | > 100 µM (inactive) | > 100 µM (inactive) | 62.7 µM (inactive) | – | – | –

SMILES | GI50 (SNB-78) | GI50 (DLD-1) | GI50 (LXFL 529) | GI50 (DMS-273) | GI50 (HOP-18) | GI50 (RXF 631) | GI50 (MDA-N) | GI50 (MCF7) | GI50 (T47D)
COC1CC(O[C@H]2CC[C@@]3(C)C(=CCC4(O)C3CCC35C(=O)OC6(C)O[C@@]43CCC65)C2)OC(C)C1O (stereo partly specified) | > 100 µM (inactive) | > 100 µM (inactive) | > 100 µM (inactive) | > 100 µM (inactive) | > 100 µM (inactive) | – | – | – | –
CC1=CC2C(C=C1)S(=O)(=O)N1CC21c1ccccc1 (stereo unspecified) | > 100 µM (inactive) | > 100 µM (inactive) | > 100 µM (inactive) | > 100 µM (inactive) | 54 µM (inactive) | – | – | – | –
CC(C)c1ccc(/C=C/c2cc(C(=O)NNC(=O)NC3CCCCC3)nc(S)n2)cc1 | > 100 µM (inactive) | > 100 µM (inactive) | > 100 µM (inactive) | > 100 µM (inactive) | > 100 µM (inactive) | > 100 µM (inactive) | – | – | –
COc1ccccc1NC(=O)C1=C(C)NC(C)=C(C(=O)Nc2ccccc2OC)C1c1cccc2c1OCO2 | – | > 100 µM (inactive) | 69.2 µM (inactive) | > 100 µM (inactive) | > 100 µM (inactive) | > 100 µM (inactive) | – | – | –
COc1ccc2c3c([nH]c(=O)c2c1C(=O)O)-c1ccccc1CC3 | 79.1 µM (inactive) | > 100 µM (inactive) | > 100 µM (inactive) | > 100 µM (inactive) | – | > 100 µM (inactive) | – | – | –
CCN(CC)c1ccc(/N=N/c2ccc(-c3nc4cccnc4o3)cc2)cc1 | > 100 µM (inactive) | 60.3 µM (inactive) | > 100 µM (inactive) | > 100 µM (inactive) | – | – | – | – | –
C/N=C(\S)N/N=C/C(C)=N/N/C(S)=N/C | > 100 µM (inactive) | – | – | > 100 µM (inactive) | > 100 µM (inactive) | – | – | – | –
CC1=Nc2c(O)nc(S)nc2NC(c2ccc(Cl)c(Cl)c2)C1 (stereo unspecified) | 60.4 µM (inactive) | 31.6 µM (inactive) | 19.4 µM (inactive) | 26.1 µM (inactive) | > 89.1 µM (inactive) | – | – | – | –
Nc1c(Br)c(=O)[nH]c(=O)n1COCCO | > 100 µM (inactive) | > 100 µM (inactive) | > 100 µM (inactive) | > 100 µM (inactive) | > 100 µM (inactive) | > 100 µM (inactive) | – | – | –
C[C@@H](C1CCC2C3C(=CC(=O)[C@@]21C)[C@H](C)[C@]1(CCC(=O)O1)C1OC31)[C@H]1C[C@]2(C)O[C@@](C)(O1)OC2(C)C (stereo partly specified) | – | > 100 µM (inactive) | > 100 µM (inactive) | > 100 µM (inactive) | > 100 µM (inactive) | > 100 µM (inactive) | – | – | –
CCC1(Br)C(=O)NC(=O)N(C2CC(O)C(CO)O2)C1N=[N+]=[N-] (stereo unspecified) | > 100 µM (inactive) | > 100 µM (inactive) | > 100 µM (inactive) | > 100 µM (inactive) | – | – | – | – | –
O=c1[nH]c(=O)n(C2CC(O)C(CO)O2)cc1C#Cc1c(F)c(F)c(F)c(F)c1F (stereo unspecified) | – | > 100 µM (inactive) | > 100 µM (inactive) | > 100 µM (inactive) | – | – | – | – | –
Cc1cc(NS(=O)(=O)c2ccc(Nc3c4ccccc4nc4c(C(=O)Nc5ccc(S(=O)(=O)N=C(N)N)cc5)cccc34)cc2)no1 | > 100 µM (inactive) | > 100 µM (inactive) | > 100 µM (inactive) | > 100 µM (inactive) | > 100 µM (inactive) | > 100 µM (inactive) | – | – | –
O/N=C1\C(=C\c2ccc3c(c2)OCCO3)CCCC1C(NO)c1ccc2c(c1)OCCO2 (stereo unspecified) | 33.9 µM (inactive) | 31.6 µM (inactive) | 20.2 µM (inactive) | 19.2 µM (inactive) | 43.4 µM (inactive) | 32.9 µM (inactive) | – | – | –
CC(CC(=O)Nc1ccc(NC(=O)CC(C)/N=N\C(N)=S)cc1)/N=N\C(N)=S (stereo unspecified) | > 100 µM (inactive) | > 100 µM (inactive) | > 100 µM (inactive) | 36.9 µM (inactive) | > 100 µM (inactive) | > 100 µM (inactive) | – | – | –
Cc1ccc(C)c(N2C(=O)C(=O)C(c3nc4ccccc4s3)/C(=N/N)C2=O)c1 (stereo unspecified) | > 100 µM (inactive) | > 100 µM (inactive) | > 100 µM (inactive) | > 100 µM (inactive) | – | – | – | – | –
